Test results taken from patent US20240336610A1, “3CL PROTEASE SMALL-MOLECULE INHIBITOR FOR TREATING OR PREVENTING CORONAVIRUS INFECTION, AND USE THEREOF” (THE GLOBAL HEALTH DRUG DISCOVERY INSTITUTE, priority 2021, published 2024).

Tests used:
[1] = target: SARS-CoV-2 main protease (3CLpro) (Severe acute respiratory syndrome coronavirus 2 (2019-nCoV) (SARS-CoV-2), UniProt P0DTD1); experiment: Enzyme activity test; format: biochemical; details: 200 nM recombinant SARS-CoV-2 main protease, 15 μM fluorescent substrate, pH 7.3
[2] = Oral pharmacokinetics in rats; format: in vivo; details: rat, blood, male SD rats, 15 mg/kg
Protocol: Test Example 2: Measurement of Oral Pharmacokinetics in Rats
Male SD rats were orally administered with 15 mg/kg of the compound in the examples of the present disclosure, and blood samples were collected at 0.083, 0.25, 0.5, 1, 2, 4, and 8 hours respectively. After the samples were treated with anticoagulant EDTA-K2 and acetonitrile and centrifuged, a drug concentration analysis was conducted using LC/MS/MS.

SMILES: CC(=O)N[C@H](C(=O)N1C[C@H]2[C@@H]([C@H]1C(=O)NC(C#N)c1c[nH]c3ccccc13)C2(C)C)C(C)(C)C (stereo partly drawn) [GDI-024, (1R,2S,5S)-3-((S)-2-acetamido-3,3-dimethylbutyryl)-N-(cyano(1H-indol-3-yl)methyl)-6,6-dimethyl-3-azabicyclo[3.1.0]hexane-2-c arboxamide]
- IC50 [1]: 66300 nM

SMILES: CC1(C)[C@@H]2[C@@H](C(=O)NC(C#N)c3cncc(Br)c3)N(C(=O)OCc3ccccc3Cl)C[C@@H]21 (stereo partly drawn) [GDI-013, 2-chlorobenzyl((1R,2S,5S)-2-((5-bromopyridin-3-yl)(cyano)methyl)carbamoyl)-6,6-dimethyl-3-azabicyclo[3.1.0]hexane-3-carb oxylate]
- IC50 [1]: 340 nM

SMILES: CN(C)c1ccc(S(=O)(=O)N[C@H](C(=O)N2C[C@H]3[C@@H]([C@H]2C(=O)NC(C#N)c2cncc(C(F)(F)F)c2)C3(C)C)C(C)(C)C)cc1 (stereo partly drawn) [GDI-019, (1R,2S,5S)-N-(cyano(5-(trifluoromethyl)pyridin-3-yl)methyl)-3-((S)-2-((4-(dimethylamino)phenyl)sulfonamido)-3,3-dimethylbutanoyl) -6,6-dimethyl-3-azabicyclo[3.1.0]hexane-2-carboxamide]
- IC50 [1]: 22 nM

SMILES: CNC(=O)c1cncc(C(C#N)NC(=O)[C@@H]2[C@@H]3[C@H](CN2C(=O)[C@@H](NC(C)=O)C(C)(C)C)C3(C)C)c1 (stereo partly drawn) [GDI-018, (1R,2S,5S)-3-((S)-2-acetamido-3,3-dimethylbutyryl)-N(cyano(5-(methylcarbamoyl)pyridin-3-yl)methyl)-6,6-dimethyl-3-azabicycl o[3.1.0]hexane-2-carboxamide]
- IC50 [1]: 110 nM

SMILES: CC(=O)N[C@H](C(=O)N1C[C@H]2[C@@H]([C@H]1C(=O)NC(C#N)c1cncc(-n3cccn3)c1)C2(C)C)C(C)(C)C (stereo partly drawn) [GDI-028, (1R,2S,5S)-N-((5-(1H-pyrazol-1-yl)pyridin-3-yl)(cyano)methyl)-3-((S)-2-acetylamino-3,3-dimethylbutanoyl)-6,6-dimethyl-3-azabi cyclo[3.1.0]hexane-2-carboxamide]
- IC50 [1]: 2.4 nM

SMILES: Cc1ccc(S(=O)(=O)N[C@H](C(=O)N2C[C@H]3[C@@H]([C@H]2C(=O)NC(C#N)c2cncc4ccccc24)C3(C)C)C(C)(C)C)cc1 (stereo partly drawn) [GDI-023, (1R,2S,5S)-N-(cyano(isoquinolin-4-yl)methyl)-3-((S)-3,3-dimethyl-2-((4-methylphenyl)sulfonamido)butanoyl)-6,6-dimethyl-3-azabic yclo[3.1.0]hexane-2-carboxamide]
- IC50 [1]: 15 nM

SMILES: CC(C)(C)[C@H](NC(=O)C(F)(F)F)C(=O)N1C[C@H]2[C@@H]([C@H]1C(=O)NC(C#N)c1cncc(C#N)c1)C2(C)C (stereo partly drawn) [GDI-014, (1R,2S,5S)-N-(cyano(5-cyanopyridin-3-yl)methyl)-3-((S)-3,3-dimethyl-2-(2,2,2-trifluoroacetylamino)butyryl)-6,6-dimethyl-3-azabicycl o[3.1.0]hexane-2-carboxamide]
- IC50 [1]: 46 nM
- AUC(0-inf) [2]: 7820 ng·h/mL
- AUC(0-t) [2]: 7800 ng·h/mL
- Cmax [2]: 5000 ng/mL
- half-life [2]: 0.832 h

SMILES: CN(C)c1ccc(S(=O)(=O)N[C@H](C(=O)N2C[C@H]3[C@@H]([C@H]2C(=O)NC(C#N)c2cncc4ccccc24)C3(C)C)C(C)(C)C)cc1 (stereo partly drawn) [GDI-027, (1R,2S,5S)-N-(cyano(isoquinolin-4-yl)methyl)-3-((S)-2-((4-(dimethylamino)phenyl)sulfonamido)-3,3-dimethylbutyryl)-6,6-dimethyl-3-azabicyclo[3.1.0]hexane-2-carboxamide]
- IC50 [1]: 7.6 nM

SMILES: CC(=O)N[C@H](C(=O)N1C[C@H]2[C@@H]([C@H]1C(=O)NC(C#N)c1cncc(-c3cnn(C)c3)c1)C2(C)C)C(C)(C)C (stereo partly drawn) [GDI-030, (1R,2S,5S)-3-((S)-2-acetamido-3,3-dimethylbutyryl)-N-(cyano(5-(1-methyl-1H-pyrazol-4-yl)pyridin-3-yl)methyl)-6,6-dimethyl-3-azabicyclo[3.1.0]hexane-2-carboxamide]
- IC50 [1]: 18 nM

SMILES: COC(=O)c1cncc(C(C#N)NC(=O)[C@@H]2[C@@H]3[C@H](CN2C(=O)[C@@H](NC(C)=O)C(C)(C)C)C3(C)C)c1 (stereo in doubt) [GDI-034, 5-((1R,2S,5S)-3-((S)-2-acetamido-3,3-dimethylbutyryl)-6,6-dimethyl-3-azabicyclo[3.1.0]hexane-2-carboxamido)(cyano)methyl)methyl nicotinate]
- IC50 [1]: 62 nM

SMILES: CN(C)c1ccc(S(=O)(=O)N[C@H](C(=O)N2C[C@H]3[C@@H]([C@H]2C(=O)NC(C#N)c2cncc(Br)c2)C3(C)C)C(C)(C)C)cc1 (stereo partly drawn) [GDI-026, (1R,2S,5S)-N-((5-bromopyridin-3-yl) (cyano)methyl)-3-((S)-2-((4-(dimethylamino)phenyl)sulfonamido)-3,3-dimethylbutanoyl)-6,6-d imethyl-3-azabicyclo[3.1.0]hexane-2-carboxamide]
- IC50 [1]: 17 nM

SMILES: CC(=O)N[C@H](C(=O)N1C[C@H]2[C@@H]([C@H]1C(=O)NC(C#N)c1cncc3c(F)cccc13)C2(C)C)C(C)(C)C (stereo partly drawn) [GDI-033, (1R,2S,5S)-3-((S)-2-acetamido-3,3-dimethylbutyryl)-N-(cyano(8-fluoroisoquinolin-4-yl)methyl)-6,6-dimethyl-3-azabicyclo[3.1.0]h exane-2-carboxamide]
- IC50 [1]: 56 nM

SMILES: CC(=O)N[C@H](C(=O)N1C[C@H]2[C@@H]([C@H]1C(=O)NC(C#N)c1cncc(-c3nc(C)no3)c1)C2(C)C)C(C)(C)C (stereo partly drawn) [GDI-015, (1R,2S,5S)-3-((S)-2-acetamido-3,3-dimethylbutyryl)-N-(cyano(5-(3-methyl-1,2,4-oxadiazol-5-yl)pyridin-3-yl)methyl)-6,6-dimethy 1-3-azabicyclo[3.1.0]hexane-2-carboxamide]
- IC50 [1]: 120 nM

SMILES: CC(=O)N[C@H](C(=O)N1C[C@H]2[C@@H]([C@H]1C(=O)NC(C#N)c1cncc(-c3nc(C(C)C)no3)c1)C2(C)C)C(C)(C)C (stereo partly drawn) [GDI-031, (1R,2S,5S)-3-((S)-2-acetamido-3,3-dimethylbutyryl)-N-(cyano(5-(3-isopropyl-1,2,4-oxadiazol-5-yl)pyridin-3-yl)methyl)-6,6-dimet hyl-3-azabicyclo[3.1.0]hexane-2-carboxamide]
- IC50 [1]: 100 nM

SMILES: CC(=O)N[C@H](C(=O)N1C[C@H]2[C@@H]([C@H]1C(=O)NC(C#N)c1cnc3[nH]ccc3c1)C2(C)C)C(C)(C)C (stereo partly drawn) [GDI-020, (1R,2S,5S)-3-((S)-2-acetamido-3,3-dimethylbutyryl)-N(cyano(1H-pyrrole[2,3-b]pyridin-5-yl)methyl)-6,6-dimethyl-3-azabicyclo[3. 1.0]hexane-2-carboxamide]
- IC50 [1]: 19 nM

SMILES: CC(C)(C)[C@H](NC(=O)C(F)(F)F)C(=O)N1C[C@H]2[C@@H]([C@H]1C(=O)NC(C#N)c1cncc(C(F)(F)F)c1)C2(C)C (stereo partly drawn) [GDI-012, (1R,2S,5S)-N-(cyano (5-(trifluoromethyl)pyridin-3-yl)methyl)-3-((S)-3,3-dimethyl-2-(2,2,2-trifluoroacetylamino)butyryl)-6,6-dimethyl-3-azabicyclo[3.1.0]hexane-2-carboxamide]
- IC50 [1]: 24 nM
- AUC(0-inf) [2]: 7140 ng·h/mL
- AUC(0-t) [2]: 7080 ng·h/mL
- Cmax [2]: 2120 ng/mL
- half-life [2]: 1.92 h

SMILES: CC(=O)N[C@H](C(=O)N1C[C@H]2[C@@H]([C@H]1C(=O)NC(C#N)c1cncc(Br)c1C)C2(C)C)C(C)(C)C (stereo partly drawn) [GDI-009, (1R,2S,5S)-3-((S)-2-acetamido-3,3-dimethylbutyryl)-N-((5-bromo-4-methylpyridin-3-yl)(cyano)methyl)-6,6-dimethyl-3-azabicycl o[3.1.0]hexane-2-carboxamide]
- IC50 [1]: 53 nM

SMILES: Cc1ccc(S(=O)(=O)N[C@H](C(=O)N2C[C@H]3[C@@H]([C@H]2C(=O)NC(C#N)c2cncc(Br)c2)C3(C)C)C(C)(C)C)cc1 (stereo partly drawn) [GDI-021, (1R,2S,5S)-N-((5-bromopyridin-3-yl) (cyano)methyl)-3-((S)-3,3-dimethyl-2-((4-methylphenyl)sulfonamido)butanoyl)-6,6-dimethyl-3-azabicyclo[3.1.0]hexane-2-carboxamide]
- IC50 [1]: 19 nM

SMILES: CC(C)(C)[C@H](NS(=O)(=O)C(F)(F)F)C(=O)N1C[C@H]2[C@@H]([C@H]1C(=O)NC(C#N)c1cncc(Br)c1)C2(C)C (stereo partly drawn) [GDI-025, (1R,2S,5S)-N-((5-bromopyridin-3-yl) (cyano)methyl)-3-((S)-3,3-dimethyl-2-((trifluoromethyl)sulfonamido)butanoyl)-6,6-dimethyl-3-azabicyclo[3.1.0]hexane-2-carboxamide]
- IC50 [1]: 19 nM

SMILES: CC(=O)N[C@H](C(=O)N1C[C@H]2[C@@H]([C@H]1C(=O)NC(C#N)c1cncc(-c3cn[nH]c3)c1)C2(C)C)C(C)(C)C (stereo partly drawn) [GDI-032, (1R,2S,5S)-N-((5-(1H-pyrazol-4-yl)pyridin-3-yl)(cyano)methyl)-3-((S)-2-acetylamino-3,3-dimethylbutanoyl)-6,6-dimethyl-3-azabi cyclo[3.1.0]hexane-2-carboxamide]
- IC50 [1]: 28 nM

SMILES: CC(C)(C)[C@H](NS(=O)(=O)C(F)(F)F)C(=O)N1C[C@H]2[C@@H]([C@H]1C(=O)NC(C#N)c1cncc3ccccc13)C2(C)C (stereo partly drawn) [GDI-029, (1R,2S,5S)-N-(cyano(isoquinolin-4-yl)methyl)-3-((S)-3,3-dimethyl-2-((trifluoromethyl)sulfonamido)butanoyl)-6,6-dimethyl-3-azabic yclo[3.1.0]hexane-2-carboxamide]
- IC50 [1]: 23 nM

SMILES: CC(=O)N[C@H](C(=O)N1C[C@H]2[C@@H]([C@H]1C(=O)NC(C#N)c1cncc(-c3ccn[nH]3)c1)C2(C)C)C(C)(C)C (stereo partly drawn) [GDI-035, (1R,2S,5S)-N-((5-(1H-pyrazol-5-yl)pyridin-3-yl)(cyano)methyl)-3-((S)-2-acetylamino-3,3-dimethylbutanoyl)-6,6-dimethyl-3-azabi cyclo[3.1.0]hexane-2-carboxamide]
- IC50 [1]: 17 nM
